How the values were obtained:
CDK2/Cyclin A1 = CDK2/Cyclin A1 (Homo sapiens, UniProt P24941); conditions: 1 μM; Run 1, Run 2
CAMK1g = CAMK1g (Homo sapiens, UniProt Q96NX5); assay: biochemical; conditions: read-out: % enzyme activity, 1 μM; Run 1, Run 2
MLK3/MAP3K11 = MLK3/MAP3K11 (Homo sapiens, UniProt Q16584); conditions: 1 μM; Run 1, Run 2
ULK2 = target: T1, ULK2 (Homo sapiens, UniProt Q8IYT8); assay: biochemical; conditions: read-out: % enzyme activity, 1 μM; Run 1, Run 2
T1 sequence (Q8IYT8 1-1036): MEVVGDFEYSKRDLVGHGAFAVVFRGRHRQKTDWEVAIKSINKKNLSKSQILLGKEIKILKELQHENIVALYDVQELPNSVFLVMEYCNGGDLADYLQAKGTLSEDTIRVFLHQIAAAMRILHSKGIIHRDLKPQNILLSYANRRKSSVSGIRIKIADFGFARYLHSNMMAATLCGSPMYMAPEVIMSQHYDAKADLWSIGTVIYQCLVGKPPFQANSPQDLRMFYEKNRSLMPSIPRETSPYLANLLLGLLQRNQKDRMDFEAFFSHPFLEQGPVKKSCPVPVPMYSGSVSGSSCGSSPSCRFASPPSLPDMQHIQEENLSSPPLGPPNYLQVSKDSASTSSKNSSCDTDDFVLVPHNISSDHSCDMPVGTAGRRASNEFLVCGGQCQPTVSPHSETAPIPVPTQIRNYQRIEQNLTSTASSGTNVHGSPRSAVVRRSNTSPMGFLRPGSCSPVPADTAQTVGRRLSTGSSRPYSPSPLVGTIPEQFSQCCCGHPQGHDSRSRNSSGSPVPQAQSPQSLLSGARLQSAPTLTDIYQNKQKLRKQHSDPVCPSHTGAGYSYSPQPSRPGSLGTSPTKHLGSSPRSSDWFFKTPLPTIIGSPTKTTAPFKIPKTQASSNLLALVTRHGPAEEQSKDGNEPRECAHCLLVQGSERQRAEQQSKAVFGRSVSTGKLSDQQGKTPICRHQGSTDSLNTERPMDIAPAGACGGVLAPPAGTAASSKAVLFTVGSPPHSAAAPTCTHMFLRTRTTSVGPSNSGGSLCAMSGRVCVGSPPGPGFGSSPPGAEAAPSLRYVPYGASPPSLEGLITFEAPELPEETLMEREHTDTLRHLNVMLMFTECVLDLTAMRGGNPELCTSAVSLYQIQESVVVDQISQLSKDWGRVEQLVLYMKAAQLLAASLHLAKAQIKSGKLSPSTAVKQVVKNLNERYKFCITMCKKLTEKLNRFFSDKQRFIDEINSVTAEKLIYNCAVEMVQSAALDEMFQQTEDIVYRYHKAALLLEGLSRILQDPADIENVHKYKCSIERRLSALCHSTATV

CDK2/cyclin E = CDK2/cyclin E (Homo sapiens, UniProt P24941); conditions: 1 μM; Run 1, Run 2
EPHB3 = target: T2, EPHB3 (Homo sapiens, UniProt P54753); conditions: 1 μM; Run 1, Run 2
T2 sequence (P54753 34-998): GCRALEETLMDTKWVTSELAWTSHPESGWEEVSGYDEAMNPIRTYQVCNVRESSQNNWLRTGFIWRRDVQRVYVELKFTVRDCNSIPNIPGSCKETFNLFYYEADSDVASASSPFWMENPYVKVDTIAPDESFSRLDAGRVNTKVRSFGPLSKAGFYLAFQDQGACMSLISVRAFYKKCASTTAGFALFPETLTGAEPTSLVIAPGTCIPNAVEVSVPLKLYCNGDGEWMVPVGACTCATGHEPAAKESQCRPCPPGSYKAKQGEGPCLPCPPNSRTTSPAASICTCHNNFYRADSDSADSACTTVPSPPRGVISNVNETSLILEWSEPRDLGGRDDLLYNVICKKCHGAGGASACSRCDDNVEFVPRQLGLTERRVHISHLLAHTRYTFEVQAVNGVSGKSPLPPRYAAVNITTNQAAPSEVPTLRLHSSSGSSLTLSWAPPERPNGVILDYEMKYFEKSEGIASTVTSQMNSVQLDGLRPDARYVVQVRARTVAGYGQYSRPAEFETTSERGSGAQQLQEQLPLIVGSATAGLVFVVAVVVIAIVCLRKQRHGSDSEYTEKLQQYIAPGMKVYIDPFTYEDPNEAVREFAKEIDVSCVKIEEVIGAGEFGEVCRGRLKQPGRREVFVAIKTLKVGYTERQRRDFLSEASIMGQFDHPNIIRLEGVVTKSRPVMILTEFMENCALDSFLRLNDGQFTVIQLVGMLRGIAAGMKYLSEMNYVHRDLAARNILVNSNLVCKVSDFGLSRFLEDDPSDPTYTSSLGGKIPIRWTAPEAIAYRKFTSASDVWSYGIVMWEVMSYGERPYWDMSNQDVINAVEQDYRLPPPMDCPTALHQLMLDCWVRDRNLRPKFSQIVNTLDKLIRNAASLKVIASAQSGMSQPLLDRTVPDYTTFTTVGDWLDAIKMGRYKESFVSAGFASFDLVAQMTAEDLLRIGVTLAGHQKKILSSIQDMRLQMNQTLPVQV

SRPK1 = SRPK1 (Homo sapiens, UniProt Q96SB4); conditions: 1 μM; Run 1, Run 2
IRAK4 = target: T3, IRAK4 (Homo sapiens, UniProt Q9NWZ3); assay: biochemical; conditions: read-out: % enzyme activity, 1 μM; Run 1, Run 2
T3 sequence (Q9NWZ3 1-460): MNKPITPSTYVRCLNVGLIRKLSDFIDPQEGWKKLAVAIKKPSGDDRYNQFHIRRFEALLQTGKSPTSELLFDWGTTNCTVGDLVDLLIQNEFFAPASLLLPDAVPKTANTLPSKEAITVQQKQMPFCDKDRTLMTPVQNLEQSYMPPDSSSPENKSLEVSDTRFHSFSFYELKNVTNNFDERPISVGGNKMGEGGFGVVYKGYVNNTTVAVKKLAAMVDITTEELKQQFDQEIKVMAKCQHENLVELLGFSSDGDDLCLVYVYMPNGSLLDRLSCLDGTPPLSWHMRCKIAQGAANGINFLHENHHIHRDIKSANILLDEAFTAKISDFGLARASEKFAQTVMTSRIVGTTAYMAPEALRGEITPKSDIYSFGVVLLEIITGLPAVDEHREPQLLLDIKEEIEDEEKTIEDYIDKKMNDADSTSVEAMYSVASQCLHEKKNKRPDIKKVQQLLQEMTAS

MLK3/MAP3K11, sequence (Q16584 whole entry): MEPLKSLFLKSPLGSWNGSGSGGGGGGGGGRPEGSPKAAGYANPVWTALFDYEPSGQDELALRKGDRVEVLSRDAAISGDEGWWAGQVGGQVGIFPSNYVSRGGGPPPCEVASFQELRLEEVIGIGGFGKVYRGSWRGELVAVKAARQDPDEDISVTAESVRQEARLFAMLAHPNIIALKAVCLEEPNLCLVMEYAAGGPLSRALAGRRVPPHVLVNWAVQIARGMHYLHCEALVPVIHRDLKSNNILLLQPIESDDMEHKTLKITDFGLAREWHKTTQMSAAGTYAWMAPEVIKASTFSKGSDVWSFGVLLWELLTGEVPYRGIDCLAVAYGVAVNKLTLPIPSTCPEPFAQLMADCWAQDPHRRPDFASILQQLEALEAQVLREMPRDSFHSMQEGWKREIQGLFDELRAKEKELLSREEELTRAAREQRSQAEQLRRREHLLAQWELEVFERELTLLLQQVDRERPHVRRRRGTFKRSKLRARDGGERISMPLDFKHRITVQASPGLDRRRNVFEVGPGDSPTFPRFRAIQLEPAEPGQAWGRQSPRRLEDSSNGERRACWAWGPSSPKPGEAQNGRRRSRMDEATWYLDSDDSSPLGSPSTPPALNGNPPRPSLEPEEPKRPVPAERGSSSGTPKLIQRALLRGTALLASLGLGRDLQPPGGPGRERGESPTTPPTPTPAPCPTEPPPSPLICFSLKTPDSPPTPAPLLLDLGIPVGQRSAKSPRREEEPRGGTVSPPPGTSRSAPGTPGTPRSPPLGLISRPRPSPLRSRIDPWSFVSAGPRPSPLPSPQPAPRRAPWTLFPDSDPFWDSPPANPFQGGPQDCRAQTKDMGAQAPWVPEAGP
SRPK1, sequence (Q96SB4 whole entry): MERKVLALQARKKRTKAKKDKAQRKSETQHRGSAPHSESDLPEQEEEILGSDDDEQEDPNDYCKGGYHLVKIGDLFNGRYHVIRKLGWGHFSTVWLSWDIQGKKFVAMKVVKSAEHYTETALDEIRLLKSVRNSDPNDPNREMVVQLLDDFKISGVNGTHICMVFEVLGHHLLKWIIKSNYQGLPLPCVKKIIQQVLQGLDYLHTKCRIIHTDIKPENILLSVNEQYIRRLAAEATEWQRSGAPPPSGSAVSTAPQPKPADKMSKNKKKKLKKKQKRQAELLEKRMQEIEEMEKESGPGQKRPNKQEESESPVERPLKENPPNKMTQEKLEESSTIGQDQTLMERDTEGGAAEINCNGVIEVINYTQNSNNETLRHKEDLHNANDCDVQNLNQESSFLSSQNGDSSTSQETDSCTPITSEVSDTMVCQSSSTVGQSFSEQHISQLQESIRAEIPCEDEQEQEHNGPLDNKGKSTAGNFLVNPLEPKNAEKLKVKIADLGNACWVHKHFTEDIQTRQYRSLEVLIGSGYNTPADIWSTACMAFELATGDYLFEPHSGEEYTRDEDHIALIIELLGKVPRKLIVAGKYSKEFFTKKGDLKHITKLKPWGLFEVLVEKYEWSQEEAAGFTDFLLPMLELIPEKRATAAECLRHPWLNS
CAMK1g, sequence (Q96NX5 whole entry): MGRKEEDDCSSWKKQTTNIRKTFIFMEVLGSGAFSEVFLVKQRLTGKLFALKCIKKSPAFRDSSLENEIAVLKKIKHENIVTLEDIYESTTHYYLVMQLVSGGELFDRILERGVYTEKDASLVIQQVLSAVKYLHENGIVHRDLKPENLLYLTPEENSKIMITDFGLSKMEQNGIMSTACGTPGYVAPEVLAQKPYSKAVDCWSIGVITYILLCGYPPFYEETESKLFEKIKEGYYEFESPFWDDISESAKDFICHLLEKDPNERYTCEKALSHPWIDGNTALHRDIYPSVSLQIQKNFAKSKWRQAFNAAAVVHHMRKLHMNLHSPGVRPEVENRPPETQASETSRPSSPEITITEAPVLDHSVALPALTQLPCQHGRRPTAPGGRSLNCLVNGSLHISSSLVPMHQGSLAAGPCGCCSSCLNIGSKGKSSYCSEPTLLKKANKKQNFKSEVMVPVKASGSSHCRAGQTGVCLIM

| SMILES | % enzyme activity (CDK2/Cyclin A1) [%] | remaining activity at 1 µM (CAMK1g) [%] | % enzyme activity (MLK3/MAP3K11) [%] | remaining activity at 1 µM (ULK2) [%] | % enzyme activity (CDK2/cyclin E) [%] | % enzyme activity (EPHB3) [%] | % enzyme activity (SRPK1) [%] | remaining activity at 1 µM (IRAK4) [%] |
| --- | --- | --- | --- | --- | --- | --- | --- | --- |
| COc1cc(-c2cncc(-c3ccc(N4C[C@@H](C)N(C)[C@@H](C)C4)cc3)c2C)cc(F)c1C(N)=O [Compound 26c, 2-Fluoro-6-methoxy-4-(4-methyl-5-(4-((3R,5S)-3,4,5-trimethylpiperazin-1-yl)phenyl)pyridin-3-yl)benzamide] | 97.14 | 108 | 96.66 | 85.2 | 102.10 | 96.08 | 81.70 | 84.9 |
| COc1cc(-c2cncc(-c3ccc(N4CCN(C)CC4)cc3)c2C)cc(F)c1C(N)=O [Compound 26a, 2-Fluoro-6-methoxy-4-(4-methyl-5-(4-(4-methylpiperazin-1-yl)phenyl)pyridin-3-yl)benzamide] | 99.67 | 102 | 99.32 | 73.7 | 104.52 | 95.16 | 105.40 | 78.5 |

From PMC8213057, “Targeting ALK2: An Open Science Approach to Developing Therapeutics for the Treatment of Diffuse Intrinsic Pontine Glioma” (Journal of Medicinal Chemistry, 2020)
